Legend:
[1] = target: T1, His-PYR1 with GST-ABI1 (Arabidopsis thaliana, UniProt O49686); assay: in vitro reconstitution, radiometric kinase assay; assay type: biochemical
T1 sequence (O49686 1-191): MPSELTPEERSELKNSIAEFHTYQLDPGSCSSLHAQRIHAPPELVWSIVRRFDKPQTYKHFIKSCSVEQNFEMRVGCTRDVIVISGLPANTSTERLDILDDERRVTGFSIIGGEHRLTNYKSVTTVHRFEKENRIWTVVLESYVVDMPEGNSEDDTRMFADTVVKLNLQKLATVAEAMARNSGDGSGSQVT
T1 sequence (P49597 1-434 partner): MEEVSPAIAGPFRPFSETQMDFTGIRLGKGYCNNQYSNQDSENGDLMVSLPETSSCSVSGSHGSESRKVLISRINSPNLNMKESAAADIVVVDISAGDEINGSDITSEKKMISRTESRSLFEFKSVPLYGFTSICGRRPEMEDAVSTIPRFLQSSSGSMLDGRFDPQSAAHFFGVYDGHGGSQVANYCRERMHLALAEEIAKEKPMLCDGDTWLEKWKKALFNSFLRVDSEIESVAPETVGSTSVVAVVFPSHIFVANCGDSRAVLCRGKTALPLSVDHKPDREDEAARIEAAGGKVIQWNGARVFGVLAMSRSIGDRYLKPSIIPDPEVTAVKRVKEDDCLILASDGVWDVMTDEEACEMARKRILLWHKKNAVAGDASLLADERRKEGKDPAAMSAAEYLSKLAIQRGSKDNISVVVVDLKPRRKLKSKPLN

[2] = target: T2, His-PYR1 with GST-HAB1 (Arabidopsis thaliana, UniProt O49686); assay: in vitro reconstitution, radiometric kinase assay; assay type: biochemical; conditions: HAB1 in place of ABI1
T2 sequence (O49686 1-191): T1 sequence (O49686 1-191)
T2 sequence (Q9CAJ0 1-511 partner): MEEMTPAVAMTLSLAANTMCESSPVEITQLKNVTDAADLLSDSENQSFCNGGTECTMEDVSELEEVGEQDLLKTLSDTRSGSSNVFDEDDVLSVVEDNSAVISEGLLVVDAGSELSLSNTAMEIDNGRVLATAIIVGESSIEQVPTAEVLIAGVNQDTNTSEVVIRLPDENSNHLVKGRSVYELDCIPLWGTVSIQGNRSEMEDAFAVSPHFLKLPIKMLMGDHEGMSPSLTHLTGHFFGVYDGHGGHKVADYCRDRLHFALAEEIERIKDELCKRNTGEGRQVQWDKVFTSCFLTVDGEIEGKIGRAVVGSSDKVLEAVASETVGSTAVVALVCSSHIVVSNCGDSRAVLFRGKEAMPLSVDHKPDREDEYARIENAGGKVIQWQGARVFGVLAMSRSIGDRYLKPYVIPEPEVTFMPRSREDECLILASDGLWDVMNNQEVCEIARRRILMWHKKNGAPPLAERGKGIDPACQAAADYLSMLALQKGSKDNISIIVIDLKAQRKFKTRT

EC50 [1]: 800 nM
Compound: CC1=CC(=O)CC(C)(C)C1(O)/C=C/C(C)=C\C(=O)O (stereo in doubt) [(+)-ABA]
in vitro reconstitution, radiometric kinase assay [2]: reconstitution was also achieved when the PP2C protein HAB1 was used instead of ABI1
